Source: US20260167614A1, “IDENTIFICATION OF SMALL MOLECULES THAT RECRUIT AND ACTIVATE RNASE L” (UNIVERSITY OF FLORIDA RESEARCH FOUNDATION, INCORPORATED, priority 2022, published 2026)

What was measured:
[1] = biological target: T1, pre-miR-21 mutant and RNase L (Homo sapiens, UniProt Q05823, H672N); test: Co-immunoprecipitation of mutant pre-miR-21 and RNase L; type: binding; settings: base paired mutant pre-miR-21, inactive RNase L
T1 construct: GST (N, cleaved yes); made in house; host or cells: BL21 AI Escherichia coli
T1 sequence (Q05823 1-741 H672N): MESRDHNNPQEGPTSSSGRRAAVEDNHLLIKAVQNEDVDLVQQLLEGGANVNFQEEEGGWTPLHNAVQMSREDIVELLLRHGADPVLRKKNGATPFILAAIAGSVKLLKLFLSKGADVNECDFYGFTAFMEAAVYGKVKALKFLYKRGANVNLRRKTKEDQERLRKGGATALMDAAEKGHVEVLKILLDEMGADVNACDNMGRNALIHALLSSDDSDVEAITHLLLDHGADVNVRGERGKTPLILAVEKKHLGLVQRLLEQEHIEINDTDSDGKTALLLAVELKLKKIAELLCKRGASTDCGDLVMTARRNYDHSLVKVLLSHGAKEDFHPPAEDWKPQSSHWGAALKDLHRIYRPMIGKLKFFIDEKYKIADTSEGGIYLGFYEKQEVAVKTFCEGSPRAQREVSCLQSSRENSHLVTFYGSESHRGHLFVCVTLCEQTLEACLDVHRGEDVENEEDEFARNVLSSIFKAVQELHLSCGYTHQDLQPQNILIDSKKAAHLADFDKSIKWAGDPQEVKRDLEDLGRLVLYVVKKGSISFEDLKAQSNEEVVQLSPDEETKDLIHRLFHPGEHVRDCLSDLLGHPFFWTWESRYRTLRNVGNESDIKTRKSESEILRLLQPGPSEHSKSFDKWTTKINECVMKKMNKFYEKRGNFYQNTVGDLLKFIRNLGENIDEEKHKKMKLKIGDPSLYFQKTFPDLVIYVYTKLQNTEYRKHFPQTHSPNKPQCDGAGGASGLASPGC
Experimental: (§1) Co-Immunoprecipitation of pre-miR-2I and RNase L. Approximately 20,000 cpm of 32P 5′-end labeled WT or mutant pre-miR-21 or an RNA construct where the A-bulge was mutated to a base pair (5′-[…] UGGGCUGU-3′) was folded in 1× RNase L Assay Buffer for 1 min at 95° C. and cooled on ice for 10 min. Following cooling, β-mercaptoethanol (7 mM), ATP (50 μM), and MgCl2 (1 mM) were added to the solution. The solution was aliquoted, and compounds were incubated in solution for 15 min (1% DMSO final concentration). […] Beads were then washed with 1×PBS supplemented with 0.02% (v/v) Tween-20. Radioactive signal in the supernatant and associated with the beads was quantified by a Beckman Coulter LS6500 Liquid Scintillation Counter. Relative RNA enrichment was calculated by comparing the radioactive signal associated with beads compared to the total radioactive signal from the beads plus the supernatant.

[2] = system: MDA-MB-231 cells modified with CRISPR and a control guide RNA; test: Global proteomics analysis via LC-MS/MS; type: cell-based
Experimental: RiboTAC 7 was then assessed for its ability to affect protein levels by deactivation of a miR-21-mediated cancer circuit, i.e., derepression of PDCD4. […] Proteome-wide analysis was also completed to study the effects of 7 and a locked nucleic acid (LNA) oligonucleotide that targets miR-21-5p on the proteome. The concentrations tested of both provided similar activity (5 nM of 7 and 100 nM of the LNA), as assessed by their effect on PDCD4 levels, ˜40% enhancement. […] Neither modality affected proteins that are direct targets of miRNA let-7b-5p, further supporting that RiboTAC 7 is selectively deactivating a miR-21-mediated cancer circuit in cells (FIG. 11C-11D).
Global proteomics analysis via LC-MS/MS. MDA-MB-231 cells modified with CRISPR and a control guide RNA were treated as described in “Cell Culture.” After treatment, the medium was removed, and the cells were washed with 1×DPBS. After washing, the cells were scraped from the culture plates, and the resulting suspension was centrifuged. Cell pellets were resuspended in 1×DPBS, and protein concentration was determined using a Pierce Micro BCA Protein Assay Kit (ThermoScientific). Urea (9 M in 100 mM NH4HCO3, pH 8) was added to a final concentration of 6 M to 30 μg lysate (15 μL prepared in 1×DPBS). […] Peptides were desalted over a self-packed C18 spin column, dried, and analyzed via LC-MS/MS. […]

MCF-10A cells = test: Boyden chamber invasion assay, MCF-10A with mutant pre-miR-21; type: cell-based; settings: Dovitinib-binding site mutated
Experimental: The effect of the RiboTAC on a miR-21-associated invasive phenotype was next assessed. Treatment with 5 μM of 7 reduced the invasiveness of MDA-MB-231 cells, by ˜30% (p<0.05) (FIG. 4E-F). […] While forced expression of a mutant pre-miR-21 in which the Dovitinib-binding site is mutated also produced an invasive phenotype, the cells were insensitive to treatment with 7 (FIG. 12).
MCF-10A cells were first transfected with either a plasmid expressing pre-miR-21 (Addgene; catalog #21114) or a plasmid encoding a pre-miR-21 mutant (custom purchased from GenScript USA, Inc, FIG. 8) using jetPRIME (Polyplus), per the manufacturer's protocol (3.2 μg of plasmid per 60 mm dish). After transfection, cells (50,000 per insert) were seeded into the hanging inserts in serum free growth medium, with or without compound (0.1% final DMSO concentration). The assay was then completed as described for the MDA-MB-231 cells.

pre-miR-21 and RNase L = biological target: T2, pre-miR-21 and RNase L (Homo sapiens, UniProt Q05823, H672N); test: Co-immunoprecipitation of pre-miR-21 and RNase L; type: binding; settings: WT 32P-pre-miR-21, inactive RNase L
T2 construct: GST (N, cleaved yes); made in house; host or cells: BL21 AI Escherichia coli
T2 sequence (Q05823 1-741 H672N): T1 sequence (Q05823 1-741 H672N)
Experimental: as §1

co-immunoprecipitation of RNA with RNase L [1]: not its base paired mutant
co-immunoprecipitation of RNA with RNase L (pre-miR-21 and RNase L): pulled down with RNase L
Structure (SMILES): CNC(=O)[C@H](c1ccccc1)N(C)Cc1ccc(-c2cccc(-c3sccc3NC(=O)CCOCCOCCOCCC(=O)NCCN3CCN(c4ccc5nc(-c6c(N)c7c(F)cccc7[nH]c6=O)[nH]c5c4)CC3)c2)cc1 [RiboTAC 7, (S)—N-(2-(4-(2-(4-amino-5-fluoro-2-oxo-1,2-dihydroquinolin-3-yl)-1H-benzo[d]imidazol-6-yl)piperazin-1-yl)ethyl)-3-(2-(2-(3-((2-(4′-((methyl(2-(methylamino)-2-oxo-1-phenylethyl)amino)methyl)-[1,1′-biphenyl]-3-yl)thiophen-3-yl)amino)-3-oxopropoxy)ethoxy)ethoxy)propanamide]
abundance of miR-21-repressed proteins (cumulative distribution analysis) ([2]; proteins encoded by mRNAs with a miR-21-5p binding site in 3′ UTR): statistically significant increase
proteins affected of the 3176 proteins detected ([2]; proteome-wide, 7 and LNA at concentrations of similar activity): 0.6%
invasive phenotype induced by forced expression of mutant pre-miR-21 (MCF-10A cells): insensitive
